According to US9492466B2, “Beta-hydroxy-gamma-aminophosphonates for treating immune disorders” (Nucitec S.A. de C.V., priority 2012, dated 2016):

Assays:
THP-1 cells [1] = assay: Phagocytic activity of THP-1 cells (yeast phagocytosis, flow cytometry); assay type: cell-based, human
Procedure: The ability of (2R,3S)-(2-hydroxy-5-methyl-3-trimethylammonium-hexyl)-phosphonic acid dimethyl ester; iodide to induce the phagocytic activity of monocytic cells (THP-1 cells) was investigated. For this, THP-1 cells were differentiated using phorbol myristate 13-acetate (PMA, 100 ng/mL) in order to induce the phagocytic activity of yeast. When the cells were treated with PMA (100 ng/mL) for 48 hours cell differentiation of monocytic cells to macrophages was observed (FIG. 14). Yeast were added to cultured media and the phagocytosis was measured by flow cytometry (FIG. 15). (2R,3S)-(2-hydroxy-5-methyl-3-trimethylammonium-hexyl)-phosphonic acid dimethyl ester; iodide induced the phagocytosis of yeast by macrophages in a similar way that those macrophages treated with PMA alone.

blood T-lymphocytes = assay: T cell levels in blood of obese rats, 5 weeks of treatment; assay type: in vivo, obese (fa/fa) Zucker rats; conditions: obese Zucker rats, 100 mg/kg
Procedure: Compound 2 (100 mg/kg) was administered to obese (fa/fa) Zucker rats five days a week for 5 weeks. […] The level of T helper (CD4+) increased; cytotoxic T-lymphocyte(CD8+) levels remained unchanged.
The effect of Compound 2 on T lymphocyte populations in normal and unhealthy rats was investigated. Obese (fa/fa) Zucker rats (ZDF) and lean Wistar rats, as control, were used. Zucker rats present a mutation in the leptin receptor, which is the molecular basis of their characteristic phenotype (loss of satiety). Obese Zucker rats are considered representative of obesity-associated type diabetes in humans. They are hyperlipidaemic, grossly obese, hyperinsulinaemic, insulin resistant, and not prone to ketosis. Metabolic changes related to increased insulin resistance, including oxidative stress, have been implicated in obesity-related pathophysiology. However, most attention in recent years has been devoted to the concept that obesity elicits a chronic low-grade systemic inflammatory state.
In this study, animals were treated with 100 mg/kg of Compound 2 five days a week for 5 weeks. The circulating lymphocyte populations were identified and quantified by flow cytometry using mice monoclonal antibodies against rat CD3+ conjugated with different fluorochromes and analyzed on a FACS Calibur flow cytometer BD using the Cell Quest software.

[2] = system: T lymphocyte subpopulations; assay: T lymphocyte subpopulations in bloodstream, thymus and spleen, 8 weeks of treatment; assay type: in vivo, obese (fa/fa) Zucker rats (ZDF); conditions: 100 mg/kg
Text: To determine whether the increase in lymphocytes is due to an increased production of lymphocytes or their mobility, the levels of T lymphocyte subpopulations in bloodstream, thymus, and spleen from obese (fa/fa) Zucker rats (ZDF) and lean rats (control), after 8 weeks of treatment with Compound 2 was investigated.
Obese rats were used in this study. Lymphocyte populations from bloodstream, thymus, and spleen were identified and quantified by flow cytometry using mice monoclonal antibodies against rat CD3+ conjugated with different fluorochromes and analyzed on a FACS Calibur flow cytometer BD using the Cell Quest software.

thymus and spleen = assay: Histological studies of thymus and spleen tissue; assay type: in vivo, obese (fa/fa) Zucker rats; conditions: obese Zucker rats, hematoxylin and eosin
Procedure: Samples of tissue from thymus (FIG. 6) and spleen (FIG. 7) were taken and histological sections were made and stained with hematoxylin and eosin from obese (fa/fa) Zucker rats and lean rats. The histological sections from thymus show a decrease in thymic medulla in samples from obese animals. When animals were treated with Compound 2 for five weeks, a recovery of the cellularity of medulla in this lymphoid organ was observed.

[3] = system: liver injury present in obese (fa/fa) Zucker rats (ZDF); assay: Histological studies of liver tissue; assay type: in vivo; conditions: 100 mg/kg
Procedure: The ability of Compound 2 (100 mg/kg) to modify the liver injury present in obese (fa/fa) Zucker rats (ZDF) was investigated. Obese (fa/fa) Zucker rats (ZDF) and lean rats, as control, were used. Obese (fa/fa) Zucker rats (ZDF) were treated with a daily dose of 100 mg/kg of the Compound 2, 5 days a week during eight weeks.
Samples of tissue from liver were taken, and histological sections were made and stained with hematoxylin and eosin from obese (fa/fa) Zucker rats and lean rats.

ALT, AST and AP in serum = assay: Level of liver enzymes (colorimetric); assay type: in vivo, obese (fa/fa) Zucker rats (ZDF); conditions: obese Zucker rats, 100 mg/kg, p<0.01
Procedure: To determine whether the morphological changes in liver tissue (see EXAMPLE 6) were associated with an improvement in liver function, the levels of liver enzymes were investigated. Obese (fa/fa) Zucker rats (ZDF) and lean rats, as control, were used. Obese (fa/fa) Zucker rats (ZDF) were treated with a daily dose of Compound 2 (100 mg/kg) 5 days a week during eight weeks.
Plasma from blood samples was collected and liver enzymes were quantified by colorimetric methods. Liver enzymes, or liver (hepatic) function tests, are used to determine if the liver is functioning normally, or if it has an injury or disease. Alanine aminotransferase (ALT) is typically used to detect a liver injury or an active or chronic liver problem. Aspartate aminotransferase (AST) is used to detect liver injuries and long-term liver disease. Highly elevated levels of AST may indicate active hepatitis from any cause. Alkaline phosphatase (ALP) is an enzyme found in the bile ducts of the liver. Damage or obstruction of the bile ducts may result in elevated levels of ALP.

[4] = Level of glucose, triglycerides, cholesterol and liver glycogen; assay type: in vivo, obese (fa/fa) Zucker rats (ZDF); conditions: 100 mg/kg, eight weeks
Procedure: To determine whether the morphological and functional changes (see EXAMPLES 6 and 7) were associated with an improvement in liver metabolism, the levels of glucose, triglycerides and cholesterol were quantified. Obese (fa/fa) Zucker rats (ZDF) and lean rats, as control, were used. Obese (fa/fa) Zucker rats (ZDF) were treated with a daily dose of Compound 2 (100 mg/kg) 5 days a week during eight weeks. Plasma from blood samples was collected, and the triglycerides, cholesterol and glucose levels were quantified by colorimetric methods. Also, liver samples were taken, and liver glycogen was measured.

THP-1 cells [5] = assay: Cell proliferation of THP-1 cells co-stimulated with lipopolysaccharide; assay type: cell-based, human
Procedure: The ability of (2R,3S)-(2-hydroxy-5-methyl-3-trimethylammonium-hexyl)-phosphonic acid dimethyl ester iodide to modify the cell proliferation of monocytic cells (THP-1 cells) co-stimulated with lipopolysaccharide was investigated. THP-1 cells, a human monocytic cell line, were used and cultured in RPMI 1640 medium supplemented with 10% FBS and 100 U/ml penicillin-streptomycin. Cell cultures were incubated at 37° C. and 5% CO2. THP-1 cells were plated at 1×10^6 cells/ml in 24-well microtiter plates. Cells were co-stimulated with lipopolysaccharide (LPS, 10 μg/mL) in order to induce cell proliferation. Cells were treated with the compound at different concentrations, and a reduction in the number of cells at 0.01, 10 and 100 μM at 24 hours of treatment were observed (FIG. 12).

THP-1 cells [6] = assay: Cell proliferation of THP-1 cells co-inhibited with hydrocortisone; assay type: cell-based, human; conditions: hydrocortisone 10 μg/mL, all used concentrations, 48 hours of treatment
Procedure: The ability of (2R,3S)-(2-hydroxy-5-methyl-3-trimethylammonium-hexyl)-phosphonic acid dimethyl ester; iodide to modify the cell proliferation of THP-1 cells was investigated. THP-1 cells were cultured in RPMI 1640 medium supplemented with 10% FBS and 100 U/ml penicillin-streptomycin. Cell cultures were incubated at 37° C. and 5% CO2. THP-1 cells were plated at 1×10^6 cells/ml in 24-well microtiter plates. Cells were co-inhibited with hydrocortisone (10 μg/mL) to inhibit cell proliferation.

Nocardia brasiliensis = assay: Reduction in mycetoma development induced in mice; assay type: in vivo; conditions: Balb-c mice, dexamethasone, 5 mg/kg and 50 mg/kg, after 15 days of treatment
Procedure: The ability of (2R,3S)-(2-hydroxy-5-methyl-3-trimethylammonium-hexyl)-phosphonic acid dimethyl ester; iodide at 5 mg/kg and 50 mg/kg to reduce the mycetoma development induced in mice was investigated. For this, male Balb-c mice weighing 25 grams were used. Mice were treated with dexamethasone (125 mg/kg) and mycetoma was induced with the inoculation Nocardia brasiliensis (15×10^8 cells, se) (FIG. 16).
Mycetoma is a chronic infectious disease that remains localized, involves cutaneous and subcutaneous tissue, fascia, and bone, and is noncontagious. The disease is characterized by tumefaction, draining sinuses, and the presence of sclerotia. The 31 fungi known to cause mycetoma are associated with soil and woody plants. A chronic, tumor-like deforming disease develops during subsequent years following the introduction of the etiologic agent via localized trauma.

CD4+ counts = conditions: HIV-infected patients, in combination with standard antiretroviral treatment, vs antiretroviral agents with no supplementation; cited from earlier work
blood lymphocytes = assay: T cell levels in normal rats (flow cytometry of circulating lymphocytes); assay type: in vivo; conditions: Wistar rats, 22.4 mg/kg
Procedure: The ability of (2R,3S)-(2-hydroxy-5-methyl-3-trimethylammonium-hexyl)-phosphonic acid; iodide (referred to herein as “Compound 1”) to modify the level of blood lymphocytes in rats was investigated. (2R,3S)-(2-hydroxy-5-methyl-3-trimethylammonium-hexyl)-phosphonic acid; iodide (22.4 mg/kg) was administered to Wistar rats 5 days a week for two weeks. The circulating lymphocyte populations were identified and quantified by flow cytometry mice monoclonal antibodies against rat CD3+ conjugated with different fluorochromes and analyzed on a FACS Calibur flow cytometer BD using the Cell Quest software. […] It is noted that administration of Compound 1 increases the levels of T helper (CD4+) and cytotoxic (CD8+) lymphocytes. In addition, an increase in regulatory T cells (CD4+CD25+) (p<0.01) was observed.

CCCCCCCCCCCCCC(=O)O[C@@H]1[C@@H](C)[C@@]2(O)[C@@H](C=C(CO)C[C@]3(O)C(=O)C(C)=C[C@@H]23)[C@@H]2C(C)(C)[C@]12OC(C)=O [PMA, phorbol myristate 13-acetate, reference compound]
cell differentiation of monocytic cells to macrophages (THP-1 cells [1]; THP-1 cells, 100 ng/mL, 48 hours): observed

COP(=O)(C[C@H](O)[C@H](CC(C)C)[N+](C)(C)C)OC [Compound 2, (2R,3S)-(2-hydroxy-5-methyl-3-trimethylammonium-hexyl)-phosphonic acid dimethyl ester; iodide]
cytotoxic T-lymphocyte (CD8+) levels (blood T-lymphocytes; 5 weeks, blood): unchanged | level of T helper (CD4+) (blood T-lymphocytes; 5 weeks, blood): increased | T cell populations (blood T-lymphocytes; 5 weeks, similar to healthy Wistar rats, although in minor intensity): increase | cytotoxic lymphocytes ([2]; obese rats, blood): significant increase | levels of total blood lymphocytes ([2]; obese rats, blood): increased | subpopulation of T helper cells ([2]; spleen): reduction | subpopulation of cytotoxic lymphocytes ([2]; spleen): reduction | total T-lymphocytes ([2]; spleen): decline | cytotoxic T-lymphocytes ([2]; thymus): increase | double positive CD8+ CD4+ (DP) lymphocytes ([2]; thymus): slight decrease | population of double negative CD4-CD8- (DN) lymphocytes ([2]; thymus): slight increase | population of helper T cells ([2]; thymus): increase | spleen morphology (white pulp, lymphoid follicles) (thymus and spleen): recovery | cellularity of medulla in thymus (histology) (thymus and spleen; treated for five weeks): recovery | liver histology ([3]; eight weeks, hematoxylin and eosin): normal liver histology | degree of fat accumulation in the liver ([3]; five days a week for eight weeks): significant reduction | level of ALT in serum (ALT, AST and AP in serum; 5 days a week during eight weeks): significant reduction | level of AP in serum (ALT, AST and AP in serum; eight weeks): significant reduction | level of AST in serum (ALT, AST and AP in serum; eight weeks): significant reduction | amount of glycogen in the liver ([4]; Zucker rats): higher | cholesterol compared with control (lean) levels ([4]; obese Zucker rats): reached the control levels | glucose compared with control (lean) levels ([4]; obese Zucker rats): reached the control levels | cholesterol levels ([4]; obese Zucker rats, p<0.01): significant reduction | glucose levels ([4]; obese Zucker rats, p<0.01): significant reduction | triglycerides levels ([4]; obese Zucker rats, p<0.01): significant reduction | effect of LPS (THP-1 cells [5]; THP-1 cells co-stimulated with LPS 10 μg/mL): inhibit | number of cells (cell proliferation) (THP-1 cells [5]; THP-1 cells, LPS 10 μg/mL, at 0.01, 10 and 100 μM, 24 hours of treatment): reduction | cell proliferation (THP-1 cells [6]): induction | phagocytosis of yeast by macrophages (THP-1 cells [1]; PMA-differentiated THP-1 cells, similar to macrophages treated with PMA alone): induced | paw thickness (mycetoma) (Nocardia brasiliensis): significant reduction

C[N+](C)(C)C[C@H](O)CC(=O)[O-] [L-carnitine]
improvement in CD4+ counts (CD4+ counts): greater improvement

(2R,3S)-(2-hydroxy-5-methyl-3-trimethylammonium-hexyl)-phosphonic acid; iodide [Compound 1]
level of total T-lymphocytes (blood lymphocytes; 5 days a week for two weeks, vs control group): increased | levels of T helper (CD4+) lymphocytes (blood lymphocytes; two weeks): increases | levels of cytotoxic (CD8+) lymphocytes (blood lymphocytes; two weeks): increases | regulatory T cells (CD4+CD25+) (blood lymphocytes; two weeks, p<0.01): increase | level of total blood T-lymphocytes (blood T-lymphocytes; five days a week for 5 weeks, vs control group): increased
